Reference: patent publication EP1195162A1 (priority 1999, dated 2000)
Where two headings read alike, the source gives them in different places.

Columns and labels:
[1] = test system: anti-influenza virus IgA antibody; format: in vivo, BALB/c mice; details: 50 µg/kg oral for 5 days, serum after 2 weeks, versus vaccine with aqueous solvent (only a low level), Figure 3
[2] = test system: anti-influenza virus IgA antibody; assay: […]; nasal irrigation liquid IgA by ELISA; format: in vivo, BALB/c mice; details: secondary response, 50 µg/kg oral over 1-5 days, versus no adjuvant (only a low level), Figure 4
[3] = test system: antibodies (IgG and IgA) specific to the adjuvant and IgE; assay: Detection of antibodies specific to the adjuvant and IgE in nasal irrigation liquid (ELISA); format: in vivo; details: plate coated with fatty acid-BSA complex, absorbance versus control mice without administration
Experimental: Subsequently, detection was carried out for the presence of antibodies (IgG and IgA) specific to the adjuvant and IgE. A linked complex between the hydroxy unsaturated-fatty acid and bovine serum albumin as a carrier protein was prepared. Each well of the 96-well EIA plate was first coated with a 100 µl aliquot of solution containing the complex (1 µg/ml). Subsequently, each well of the plate was coated with 300 µl aliquot of a blocking solution (PBS containing 5% skimmed milk) for 1 hour to avoid non-specific reactions. Then, 100 µl samples (nasal irrigation liquid) diluted to various concentrations were added into the respective wells for antigen-antibody reaction and the reaction was continued for 1 hour. The plate was then washed 3 times with PBS-0.05% Tween-20, and then 100 µl of peroxidase-conjugated anti-mouse IgG, IgA or IgE antibody (1:1000) as a secondary antibody was added thereto and the reaction was continued for one hour. After the plate was washed 3 times with PBS-Tween-20, 100 µl of a substrate solution (0.1 M citrate buffer (pH 4) containing 0.003% hydrogen peroxide and ABTS of 0.3 mg/ml) was added thereto. The plate was incubated for 15 minutes for color development. The color (O.D. at 405 nm) was assayed in a micro-plate reader.

pertussis toxin (PT) = test system: pertussis toxin (PT); parameters: species or system mice; details: mouse, in vivo
diphtheria toxoid (DT) = test system: diphtheria toxoid (DT); parameters: species or system mice; details: mouse, in vivo
tetanus toxoid (TT) = test system: tetanus toxoid (TT); parameters: species or system mice; details: mouse, in vivo
measles = assay: Measles-rubella vaccine with oral adjuvant; antibody production in the blood, measles; format: in vivo, mice; details: vaccine twice at 3-week intervals, adjuvant oral at first inoculation only, vaccine alone: 0.14
Experimental: (§1) A measles-rubella vaccine preparation was prepared to contain virus particles of each vaccine of which amount corresponded to 7 µg in 20 µL of the preparation. 9,12,13-Trihydroxy-10E-octadecenoic acid dissolved in PBS and sterilized by filter was prepared at a concentration of 2.5 µg in 0.5 mL. A stabilizer (0.2% porcine gelatin, 0.1% sodium glutamate, 5% lactose) was added to these preparations. The resulting mixtures were dispensed into containers, which were used as measles-rubella vaccine combined vaccine-hydroxy unsaturated fatty acid nasal drop or oral preparations. Such preparations were stored at a temperature of not more than 10°C in a cool and dark place.
(§2) The measles-rubella vaccine as prepared above was administered into mice twice at 3-week intervals, and then 9,12,13-trihydroxy-10E-octadecenoic acid was orally administered only at or around the time of the first inoculation. Then, the antibody production in the blood was evaluated.

rubella = assay: Measles-rubella vaccine with oral adjuvant; antibody production in the blood, rubella; format: in vivo, mice; details: vaccine twice at 3-week intervals, adjuvant oral at first inoculation only, vaccine alone: 0.09
Experimental: as §1, §2

Mycoplasma = format: in vivo, mice; details: vaccine intranasal 3 times at 2-week intervals, adjuvant oral at first inoculation only
[4] = test system: anti-influenza virus IgG antibody; format: in vivo, BALB/c mice; details: secondary response
[5] = test system: anti-influenza virus IgA antibody; format: in vivo, BALB/c mice
rotavirus vaccine = assay: Rotavirus vaccine with oral adjuvant; antibody production in the blood; format: in vivo, mice; details: adjuvant oral at first inoculation only
Experimental: A rotavirus vaccine preparation was prepared to contain virus particles of which amount corresponded to 3.3 µg in 20 µL. The methyl ester derivative (2) (methyl 9,12,13-trihydroxy-10E-octadecenoate) as used in Example 5 was dissolved in PBS and prepared at a concentration of 10 µg in 0.5 mL. The resulting preparation was sterilized by filter and dispensed into containers, which were used as rotavirus vaccine-hydroxy unsaturated fatty acid oral preparations or nasal drops. Such preparations were stored at a temperature of not more than 10°C in a cool and dark place.
The rotavirus vaccine as prepared above was administered into mice twice at 3-week intervals, and then the methyl ester derivative was orally administered only at or around the time of the first inoculation. Then, the antibody production in the blood was evaluated.

CCCCCC(O)C(O)/C=C/C(O)CCCCCCCC(=O)O (stereo not drawn) [9,12,13-trihydroxy-10E-octadecenoic acid]
titer of anti-influenza virus IgA antibody in the serum [1]: highly elevated
titer of anti-influenza virus IgA antibody in the nasal irrigation liquids [2]: highly elevated
antibodies (IgG, IgA) specific to the adjuvant and IgE [3]: neither antibody (IgG, IgA) specific to the adjuvant nor IgE was detectable
level of anti-PT-IgA antibody (pertussis toxin (PT)): 14 ELISA units
level of anti-PT-IgG antibody (pertussis toxin (PT)): 442 ELISA units
level of anti-DT-IgA antibody (diphtheria toxoid (DT)): 11 ELISA units
level of anti-DT-IgG antibody (diphtheria toxoid (DT)): 70 ELISA units
level of anti-TT-IgA antibody (tetanus toxoid (TT)): 11 ELISA units
level of anti-TT-IgG antibody (tetanus toxoid (TT)): 75 ELISA units
ELISA titer of antibody produced for measles (measles): 0.30
ELISA titer of antibody produced for rubella (rubella): 0.29
average number of lesions (Mycoplasma; vaccine alone: 302): 178
mice in which lesions associated with Mycoplasma infection were found (Mycoplasma; vaccine alone: all of 10): 3 of 10
titer of anti-influenza virus IgG antibody in the serum ([4]; compared with HA vaccine singly used, Figure 5): increased
titer of anti-influenza virus IgG antibody in the lung irrigation liquid ([4]; vaccine alone: only a low level, Figure 6): significantly elevated
adjuvant activity compared with the same dose of CTB (positive control), nasal irrigation liquid IgA ([5]; mouse, in vivo): comparable
adjuvant activity compared with the same dose of CTB (positive control), serum IgA ([5]; mouse, in vivo): comparable
titer of anti-influenza virus IgA antibody in the serum ([5]; secondary response, adjuvant 1 µg per mouse oral, vaccine subcutaneous, compared with HA vaccine singly used, Figure 7): significantly increased
titer of anti-influenza virus IgA antibody in the nasal irrigation liquid ([5]; secondary response, adjuvant 1 µg per mouse oral, vaccine subcutaneous, vaccine alone: only a low level, Figure 8): significantly elevated

CCCCCC(O)C(O)/C=C/C(O)CCCCCCCC(=O)OC (stereo not drawn) [methyl ester derivative, methyl 9,12,13-trihydroxy-10E-octadecenoate]
ELISA titer of antibody produced (rotavirus vaccine; inoculation of nasal vaccine drop twice at 3-week intervals, vaccine alone: 0.089): 0.38
ELISA titer of antibody produced (rotavirus vaccine; vaccine inoculated orally twice at 3-week intervals, control without adjuvant: 0.018): 0.27
